Source: patent publication US20060257481A1, “Sustained release formulation and dosing schedule of leukotriene synthesis inhibitor for human therapy” (deCODE Genetics ehf., priority 2005, published 2006)
“And” between values parts separate entries of the source, which are not always exact repeats. Equal entries are not always repeated.

Tests used:
[1] = Clinical studies, safety and tolerability in CAD patients; type: in vivo, human
Protocol: Previous clinical studies administered the dosages of DG-031 either in a single dose (QD) or twice a day (BID)
A total daily dose of 750 mg, dosed at 250 mg TID, provides a preferable PK/PD relationship (inhibition of LTB4) and efficacy in terms of lowering other biomarkers of MI risk (i.e. MPO and CRP).

[2] = Pharmacokinetics of DG-031 dosing schedules, plasma concentration (studies 201 and 203); conditions: for Peak concentration with trough concentration of 3 μg/mL maintained: steady-state, both half-lives
Protocol: Measurements of plasma DG-031 can be carried out by methods that are standard in the art. […] The DG-031 is then measured by liquid chromatography and/or mass spectrometry and the measured concentration is compared to a standard curve.
After completion of the double-blind study reported herein an open-label randomized study was conducted in an independent cohort but with same eligibility criteria and measuring several of the same biomarkers. […] Each patient was on drug for 8 days; there was no placebo group. The primary objective of this study was to determine pharmacokinetic parameters of DG-031 in three different doses, as well as to assess the pharmacokinetic/pharmacodynamic relationship between DG-031, LTB4 and MPO.
The additional phase II study was conducted to compare a 750 mg total daily dose administered in a BID or TID dosing regimen.

MMP-9 = assay: Study DG-031-201: MMP 9; type: in vivo, human; conditions: difference visit 2 to visit 5; 500 and 750 mg/day vs placebo cohort
Protocol: (§1) Patients who met the study eligebility criteria were enrolled and randomized into 3 different dose-level groups: (1) 64 patients on 250 mg/day therapy with DG-031 (250 mg q.d.), vs placebo; (2) 64 patients on 500 mg/day therapy with DG-031 (250 mg b.i.d.) vs placebo; and (3) 63 patients on 750 mg/day therapy with DG-031 (250 mg t.i.d.) vs placebo. […] All patients received 3 tablets per day. Treatment periods, 4 weeks in duration each, were separated by a 2-week washout period. The placebo tablets were identical in shape, color, form and taste to the active tablets except that they contained no active drug ingredients. Treatment with DG-031 or placebo was in addition to the subject's standard care, including all medications and treatment plan as prescribed by the subject's cardiologist prior to enrolment. A total of 191 subjects were enrolled, with 172 completing all 8 visits or 8 patients short of the target of 180 patients.
All data were analyzed according to a pre-established statistical analysis plan (SAP) and by intention-to-treat (ITT). Each arm of the study, as well as pooled sets (combining dose levels), was considered for the primary analysis. […] The difference between DG-031 and placebo treatment was the primary outcome, assessed separately for each of the biomarkers. […]

MPO [3] = assay: Study DG-031-201: MPO in plasma; type: in vivo, human; conditions: difference visit 2 to visit 5; 500 and 750 mg/day vs placebo cohort
Protocol: as §1, with “patients. […]” for “patients.”
All data were analyzed according to a pre-established statistical analysis plan (SAP) and by intention-to-treat (ITT). […] The difference between DG-031 and placebo treatment was the primary outcome, assessed separately for each of the biomarkers. […]

MPO [4] = assay: Study DG-031-203 open label dose ranging: plasma MPO; type: in vivo, human
Protocol: The study also collected information on the dose-related effect of DG-031 on capacity for LTB4 production (ex vivo), plasma MPO, and serum-CRP. […] The pattern observed supported a concentration dependent pharmacologic effect of DG-031 on capacity for LTB4 production measured ex vivo. The effects on LTB4 production amounted to a 30% (p=0.016) and 25% (p=0.094) reduction with the 375 mg BID and 250 mg TID doses, respectively.

In the case of `O=C(O)[C@@H](c1ccc(OCc2ccc3ccccc3n2)cc1)C1CCCC1` [DG-031, (R)-(+)-alpha-cyclopentyl-4-(2-quinolinylmethoxy)-Benzeneacetic acid], the Safety and tolerability ([1]; 250 mg QD, 375 mg QD, 250 mg BID, 375 mg BID and 250 mg TID) is reported as “safe and well tolerated”, the Safety and tolerability ([1]; total daily doses 375 mg and 750 mg, less than 8 days) is reported as “safe and well tolerated” and the Safety and tolerability ([1]; total daily doses 250, 500 and 750 mg, 128 days) is reported as “safe and well tolerated”. For the same molecule, the “Minimum plasma concentration maintained” value ([2]; 250 mg TID) was roughly 7 µM, the “Peak concentrations of DG-031” value ([2]; 250 mg TID) was “about 10 μg/ml and ~28 μM” and the “Steady state Cmin plasma concentration” value ([2]; 250 mg TID) was 2000 to 3000 ng/mL. For the same molecule, the “Calculated AUC24h” value ([2]; 250 mg TID vs 375 mg BID, study 203) was “somewhat higher for 250 mg TID than for 375 mg BID”, the Cmin ([2]; 375 mg BID vs 250 mg TID, study 203) was “slightly higher for the TID dosing regimen” and the “Peak concentration with trough concentration of 3 μg/mL maintained” value ([2]; BID doses) was 14 µg/mL. The “Peak concentration required to keep steady-state concentration above 3 μg/ml” value ([2]; BID dosing, calculated for a 2.5 hour half-life (FIG. 4)) was roughly 30 µg/mL, the “Peak concentration with trough concentration of 3 μg/mL maintained” value ([2]; TID doses) was 7 to 8 µg/mL and the “Peak plasma concentration required to keep steady-state concentration above 3 μg/ml” value ([2]; TID dosing, calculated for a 2.5 hour half-life) was roughly 11 µg/mL. The “Drug required with TID dosing relative to BID schedule to maintain the minimum concentration” value ([2]; in vivo) was “about 70%”, the “Share of total exposure of the fraction with the slower half-life” value ([2]; in vivo) was “about 25%” and the “Carry-over effect, MMP 9” value (MMP-9) was −0.04. For the same molecule, the “Carry-over effect, MPO in plasma” value (MPO [3]) was −0.11, the MPO in plasma (MPO [4]; 250 mg TID, St. 203, 6 hours, P < 0.001) was −37% (St. 203) and the “Drop of plasma MPO levels” value (MPO [4]; 250 mg t.i.d., 6 hours after intake, [24%,47%], p<0.001) was 37%. For the same molecule, the MPO in plasma (MPO [4]; 375 mg BID, Study 203, 6 hours, NS) was −24%, the “Lowering of plasma MPO levels” value (MPO [4]; 375 mg BID, p=0.067) was 24% and the MPO in plasma (MPO [4]; 375 mg QD, Study 203, 6 hours) was “No effect”.
